Experimental data taken from the supplement of paper PMC10307832.

Legend:
Experiment in all cases: relative viability (nuclei count vs DMSO), 5 days (fraction); higher = more cells survive
Ibrutinib + Dasatinib = compound: C=CC(=O)N1CCC[C@@H](n2nc(-c3ccc(Oc4ccccc4)cc3)c3c(N)ncnc32)C1 [Ibrutinib] + Cc1nc(Nc2ncc(C(=O)Nc3c(C)cccc3Cl)s2)cc(N2CCN(CCO)CC2)n1 [Dasatinib] (partner 0.075 µM)
How it was run: (§1)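 Dosing by pin tool came one day after lung cancer cell lines were seeded in 1536-well plates, using either one drug or a fixed anchor-drug dose plus five library-drug doses (not always all listed) in √10 steps. After 5 days, nuclei were counted on 4× images. Relative viability is treated-well nuclei count divided by vehicle-well nuclei count, and values are medians of duplicate plates.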

BMX-IN-1 + Pictilisib = compound: C=CC(=O)Nc1cc(-n2c(=O)ccc3cnc4ccc(-c5ccc(NS(C)(=O)=O)cc5)cc4c32)ccc1C [BMX-IN-1] + CS(=O)(=O)N1CCN(Cc2cc3nc(-c4cccc5[nH]ncc45)nc(N4CCOCC4)c3s2)CC1 [Pictilisib] (partner 1 µM)
How it was run: as §1

BMX-IN-1 + AZD7762 = compound: C=CC(=O)Nc1cc(-n2c(=O)ccc3cnc4ccc(-c5ccc(NS(C)(=O)=O)cc5)cc4c32)ccc1C [BMX-IN-1] + NC(=O)Nc1cc(-c2cccc(F)c2)sc1C(=O)N[C@H]1CCCNC1 [AZD7762] (partner 0.2 µM)
How it was run: as §1

BMX-IN-1 + OSI-027 = compound: C=CC(=O)Nc1cc(-n2c(=O)ccc3cnc4ccc(-c5ccc(NS(C)(=O)=O)cc5)cc4c32)ccc1C [BMX-IN-1] + COc1cccc2cc(-c3nc([C@H]4CC[C@H](C(=O)O)CC4)n4ncnc(N)c34)[nH]c12 [OSI-027] (partner 0.5 µM)
How it was run: as §1

| Cell Line | relative viability (Ibrutinib + Dasatinib; first compound 0.005 µM) | relative viability (Ibrutinib + Dasatinib; first compound 0.01581 µM) | relative viability (Ibrutinib + Dasatinib; first compound 0.05 µM) | relative viability (Ibrutinib + Dasatinib; first compound 0.1581 µM) | relative viability (Ibrutinib + Dasatinib; first compound 0.5 µM) | relative viability (BMX-IN-1 + Pictilisib; first compound 0.02 µM) | relative viability (BMX-IN-1 + Pictilisib; first compound 0.2 µM) | relative viability (BMX-IN-1 + Pictilisib; first compound 0.6325 µM) | relative viability (BMX-IN-1 + Pictilisib; first compound 2 µM) | relative viability (BMX-IN-1 + AZD7762; first compound 0.02 µM) | relative viability (BMX-IN-1 + AZD7762; first compound 0.2 µM) | relative viability (BMX-IN-1 + AZD7762; first compound 0.6325 µM) | relative viability (BMX-IN-1 + AZD7762; first compound 2 µM) | relative viability (BMX-IN-1 + OSI-027; first compound 0.02 µM) | relative viability (BMX-IN-1 + OSI-027; first compound 0.2 µM) | relative viability (BMX-IN-1 + OSI-027; first compound 0.6325 µM) | relative viability (BMX-IN-1 + OSI-027; first compound 2 µM) |
| --- | --- | --- | --- | --- | --- | --- | --- | --- | --- | --- | --- | --- | --- | --- | --- | --- | --- |
| LCLC-103H | 0.496 | 0.432 | 0.454 | 0.489 | 0.318 | 0.636 | 0.612 | 0.684 | 0.609 | 0.824 | 0.887 | 0.773 | 0.82 | 0.493 | 0.55 | 0.527 | 0.522 |
| RERF-LC-KJ | 0.936 | 0.637 | 0.757 | 0.85 | 0.88 | 0.6 | 0.64 | 0.607 | 0.484 | 1.1 | 0.957 | 1.3 | 1.19 | 0.626 | 0.612 | 0.587 | 0.278 |
| NCI-H1355 | 0.527 | 0.647 | 0.718 | 0.623 | 0.677 | 0.374 | 0.443 | 0.487 | 0.434 | 0.872 | 0.85 | 0.838 | 0.755 | 0.386 | 0.393 | 0.482 | 0.424 |
| NCI-H2085 | 0.26 | 0.254 | 0.219 | 0.202 | 0.216 | 0.433 | 0.389 | 0.485 | 0.443 | 1.08 | 1.07 | 0.986 | 0.996 | 0.743 | 0.748 | 0.696 | 0.745 |
| NCI-H650 | 0.408 | 0.484 | 0.378 | 0.491 | 0.465 | 1.02 | 0.826 | 0.872 | 0.772 | 0.978 | 1.29 | 0.921 | 0.904 | 0.511 | 0.508 | 0.594 | 0.531 |
| NCI-H460 | 0.548 | 0.42 | 0.491 | 0.286 | 0.603 | 0.376 | 0.511 | 0.371 | 0.501 | 0.725 | 0.566 | 0.768 | 0.735 | 1.46 | 1.16 | 1.16 | 0.691 |
| NCI-H1666 | 0.841 | 0.807 | 0.803 | 0.896 | 0.706 | 0.404 | 0.365 | 0.428 | 0.396 | 0.804 | 0.886 | 0.901 | 0.871 | 0.948 | 1.01 | 0.843 | 0.951 |
| LK-2 |  | 0.273 | 0.278 | 0.224 | 0.293 | 0.8 | 0.696 | 0.543 | 0.59 | 0.397 | 0.297 | 0.323 | 0.41 | 0.219 | 0.188 | 0.187 | 0.242 |
| LXF-289 | 0.26 | 0.14 | 0.275 | 0.325 | 0.176 | 0.808 | 0.863 | 0.88 | 0.761 | 1.25 | 1.18 | 1.22 | 1.27 | 0.878 | 0.766 | 1.1 | 0.838 |
